Reference: PubChem BioAssay (NCI)
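In this assay, cells in 96-well plates receive the compound at five concentrations for 48 hours. Endpoints are linearly interpolated between the surrounding concentrations. TGI is the concentration that stops growth completely.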 Active and inactive are the calls of the source. Cut-off read from the data, not from the text of the source: active = GI50 below about 0.43 µM; inactive = the rest.

What was measured:
Assay in all cases: NCI tumour cell line growth inhibition, 48 h
[1] = system: A498 renal
[2] = system: M14 melanoma
[3] = system: HCT-116 colon
[4] = system: NCI-H522 lung
[5] = system: OVCAR-8 ovarian
[6] = system: SK-MEL-5 melanoma
[7] = system: SF-268 CNS
[8] = system: KM12 colon
[9] = system: T-47D breast
[10] = system: TK-10 renal
[11] = system: CCRF-CEM leukemia
[12] = system: MALME-3M melanoma
[13] = system: HS 578T breast
[14] = system: SF-295 CNS
[15] = system: OVCAR-4 ovarian
[16] = system: SW-620 colon
[17] = system: A549 NSCLC
[18] = system: SR leukemia
[19] = system: SN12C renal
[20] = system: HCC-2998 colon
[21] = system: HOP-62 NSCLC
[22] = system: MOLT-4 leukemia
[23] = system: CAKI-1 renal
[24] = system: RXF 393 renal
[25] = system: DU-145 prostate
[26] = system: UACC-62 melanoma
[27] = system: IGROV1 ovarian
[28] = system: RPMI-8226 leukemia
[29] = system: SK-MEL-2 melanoma
[30] = system: OVCAR-3 ovarian
[31] = system: COLO 205 colon
[32] = system: NCI-H23 lung
[33] = system: SK-OV-3 ovarian
[34] = system: MCF7 breast
[35] = system: LOX IMVI melanoma
[36] = system: HOP-92 NSCLC
[37] = system: UACC-257 melanoma
[38] = system: HL-60(TB) leukemia
[39] = system: K-562 leukemia
[40] = system: NCI-H226 lung
[41] = system: SNB-19 CNS
[42] = system: U251 CNS
[43] = system: SF-539 CNS
[44] = system: HCT-15 colon
[45] = system: NCI-H460 lung
[46] = system: OVCAR-5 ovarian
[47] = system: NCI/ADR-RES ovarian
[48] = system: SK-MEL-28 melanoma
[49] = system: MDA-N
[50] = system: PC-3 prostate
[51] = system: EKVX NSCLC
[52] = system: 786-0 renal
[53] = system: MDA-MB-435
[54] = system: MDA-MB-231 breast
[55] = system: BT-549 breast
[56] = system: ACHN renal
[57] = system: HT29 colon
[58] = system: SNB-75 CNS
[59] = system: UO-31 renal

Q: `O=C1c2ccc3cc(CCl)cc(O)c3c2C(=O)c2cccc(O)c21` was tested. Which TGI [1] did it give?
A: Its TGI is > 10 µM.

Q: And the TGI [2]?
A: The TGI was 2.45 µM.

Q: And the TGI [3]?
A: The TGI was 4.18 µM.

Q: What about the TGI [4] of the same compound?
A: The TGI was > 10 µM.

Q: And the TGI [5]?
A: Its TGI is 5.03 µM.

Q: And the TGI [6]?
A: The TGI was 1.98 µM.

Q: What about the TGI [7] of the same compound?
A: Its TGI is 9.18 µM.

Q: What about the TGI [8] of the same compound?
A: The TGI was > 10 µM.

Q: What about the TGI [9] of the same compound?
A: Its TGI is > 10 µM.

Q: And the TGI [10]?
A: Its TGI is > 10 µM.

Q: What about the TGI [11] of the same compound?
A: The TGI was 5.16 µM.

Q: What about the TGI [12] of the same compound?
A: The TGI was 0.0669 µM.

Q: What about the TGI [13] of the same compound?
A: The TGI was > 10 µM.

Q: What about the TGI [14] of the same compound?
A: Its TGI is > 10 µM.

Q: What about the TGI [15] of the same compound?
A: The TGI was > 10 µM.

Q: And the TGI [16]?
A: Its TGI is 1 µM.

Q: What about the TGI [17] of the same compound?
A: Its TGI is > 10 µM.

Q: What about the TGI [18] of the same compound?
A: The TGI was > 10 µM.

Q: What about the TGI [19] of the same compound?
A: Its TGI is 7.26 µM.

Q: What about the TGI [20] of the same compound?
A: Its TGI is > 10 µM.

Q: What about the TGI [21] of the same compound?
A: The TGI was > 10 µM.

Q: What about the TGI [22] of the same compound?
A: The TGI was 6.75 µM.

Q: What about the TGI [23] of the same compound?
A: The TGI was > 10 µM.

Q: What about the TGI [24] of the same compound?
A: Its TGI is 9.83 µM.

Q: And the TGI [25]?
A: The TGI was > 10 µM.

Q: What about the TGI [26] of the same compound?
A: Its TGI is 3.85 µM.

Q: What about the TGI [27] of the same compound?
A: Its TGI is > 10 µM.

Q: And the TGI [28]?
A: Its TGI is > 10 µM.

Q: What about the TGI [29] of the same compound?
A: Its TGI is > 10 µM.

Q: And the TGI [30]?
A: Its TGI is 0.407 µM.

Q: And the TGI [31]?
A: The TGI was 4.11 µM.

Q: And the TGI [32]?
A: The TGI was > 10 µM.

Q: What about the TGI [33] of the same compound?
A: The TGI was > 10 µM.

Q: What about the TGI [34] of the same compound?
A: The TGI was 2.72 µM.

Q: What about the TGI [35] of the same compound?
A: Its TGI is > 10 µM.

Q: What about the TGI [36] of the same compound?
A: The TGI was > 10 µM.

Q: What about the TGI [37] of the same compound?
A: The TGI was 3.04 µM.

Q: And the TGI [38]?
A: Its TGI is 1.61 µM.

Q: What about the TGI [39] of the same compound?
A: Its TGI is > 10 µM.

Q: What about the TGI [40] of the same compound?
A: Its TGI is > 10 µM.

Q: What about the TGI [41] of the same compound?
A: The TGI was > 10 µM.

Q: What about the TGI [42] of the same compound?
A: The TGI was > 10 µM.

Q: And the TGI [43]?
A: The TGI was 6.42 µM.

Q: What about the TGI [44] of the same compound?
A: The TGI was > 10 µM.

Q: What about the TGI [45] of the same compound?
A: The TGI was > 10 µM.

Q: And the TGI [46]?
A: Its TGI is > 10 µM.

Q: And the TGI [47]?
A: Its TGI is 5.67 µM.

Q: And the TGI [48]?
A: Its TGI is 8.27 µM.

Q: What about the TGI [49] of the same compound?
A: Its TGI is 0.314 µM.

Q: What about the TGI [50] of the same compound?
A: The TGI was > 10 µM.

Q: What about the TGI [51] of the same compound?
A: Its TGI is > 10 µM.

Q: What about the TGI [52] of the same compound?
A: The TGI was > 10 µM.

Q: And the TGI [53]?
A: Its TGI is 0.324 µM.

Q: What about the TGI [54] of the same compound?
A: The TGI was 3.16 µM.

Q: What about the TGI [55] of the same compound?
A: The TGI was > 10 µM.

Q: And the TGI [56]?
A: Its TGI is 7.4 µM.

Q: How did the outcome [1] turn out when `O=c1cc(-c2ccc(O)c(O)c2-c2c(O)cc(O)c3c(=O)cc(-c4ccc(O)c(O)c4-c4c(O)cc(O)c5c(=O)cc(-c6ccc(O)c(O)c6)oc45)oc23)oc2cc(O)cc(O)c12` was run?
A: The outcome was “inactive”.

Q: And the outcome [57]?
A: Its outcome is “inactive”.

Q: And the outcome [2]?
A: The outcome was “inactive”.

Q: What about the outcome [3] of the same compound?
A: The outcome was “inactive”.

Q: What about the outcome [5] of the same compound?
A: Its outcome is “inactive”.

Q: And the outcome [6]?
A: Its outcome is “inactive”.

Q: And the outcome [7]?
A: The outcome was “inactive”.

Q: What about the outcome [9] of the same compound?
A: The outcome was “inactive”.

Q: And the outcome [10]?
A: The outcome was “inactive”.

Q: And the outcome [11]?
A: The outcome was “inactive”.

Q: And the outcome [12]?
A: The outcome was “inactive”.

Q: And the outcome [13]?
A: The outcome was “inactive”.

Q: What about the outcome [14] of the same compound?
A: The outcome was “inactive”.

Q: And the outcome [15]?
A: Its outcome is “inactive”.

Q: And the outcome [16]?
A: Its outcome is “inactive”.

Q: What about the outcome [17] of the same compound?
A: The outcome was “inactive”.

Q: What about the outcome [18] of the same compound?
A: Its outcome is “inactive”.

Q: And the outcome [19]?
A: The outcome was “inactive”.

Q: And the outcome [20]?
A: The outcome was “inactive”.

Q: And the outcome [21]?
A: The outcome was “inactive”.

Q: And the outcome [58]?
A: Its outcome is “inactive”.

Q: And the outcome [22]?
A: Its outcome is “inactive”.

Q: And the outcome [23]?
A: The outcome was “inactive”.

Q: What about the outcome [24] of the same compound?
A: Its outcome is “inactive”.

Q: And the outcome [25]?
A: The outcome was “inactive”.

Q: And the outcome [26]?
A: The outcome was “inactive”.

Q: What about the outcome [27] of the same compound?
A: The outcome was “inactive”.

Q: And the outcome [29]?
A: The outcome was “inactive”.

Q: And the outcome [30]?
A: Its outcome is “inactive”.

Q: What about the outcome [31] of the same compound?
A: The outcome was “inactive”.

Q: What about the outcome [32] of the same compound?
A: Its outcome is “inactive”.

Q: And the outcome [33]?
A: The outcome was “inactive”.

Q: And the outcome [34]?
A: The outcome was “inactive”.

Q: What about the outcome [35] of the same compound?
A: The outcome was “inactive”.

Q: And the outcome [36]?
A: The outcome was “inactive”.

Q: And the outcome [37]?
A: Its outcome is “inactive”.

Q: What about the outcome [38] of the same compound?
A: The outcome was “inactive”.

Q: And the outcome [39]?
A: The outcome was “inactive”.

Q: What about the outcome [40] of the same compound?
A: Its outcome is “inactive”.

Q: What about the outcome [41] of the same compound?
A: The outcome was “inactive”.

Q: What about the outcome [42] of the same compound?
A: The outcome was “inactive”.

Q: And the outcome [59]?
A: The outcome was “inactive”.

Q: What about the outcome [43] of the same compound?
A: Its outcome is “inactive”.

Q: And the outcome [44]?
A: Its outcome is “inactive”.

Q: What about the outcome [45] of the same compound?
A: Its outcome is “inactive”.

Q: And the outcome [46]?
A: Its outcome is “inactive”.

Q: And the outcome [47]?
A: Its outcome is “inactive”.

Q: What about the outcome [48] of the same compound?
A: Its outcome is “inactive”.

Q: And the outcome [49]?
A: The outcome was “inactive”.

Q: What about the outcome [50] of the same compound?
A: The outcome was “inactive”.

Q: What about the outcome [51] of the same compound?
A: Its outcome is “inactive”.

Q: What about the outcome [53] of the same compound?
A: Its outcome is “inactive”.

Q: And the outcome [54]?
A: The outcome was “inactive”.

Q: And the outcome [55]?
A: The outcome was “inactive”.
